The melting point is the temperature, or range, at which the solid turns liquid. `Cc1nc(NC(=O)c2cccc(OC(F)(F)F)c2)sc1C(=O)NCc1ccccc1` returned a melting point of 230 to 232 °C. For `Cc1cc(Cl)nc(SCC#N)n1` the value was 62 to 65 °C. For `CC(C)(C)c1cc(-c2coc3c(C(C)(C)C)cc(C(C)(C)C)cc23)c(O)c(C(C)(C)C)c1` the value was 236 to 238 °C; for `O=c1[nH]c(=O)n(CCCCN2CCC(OC(c3ccccc3)c3ccccc3)CC2)c2cc(Cl)ccc12`, 169 to 171 °C.

The molecule `CN(C)Cc1nc(CSCCNc2ncc(CC3CCCO3)c(=O)[nH]2)cs1` (stereo unspecified) had a melting point of 118 to 123 °C.

Consider `COc1cccc(-c2nc3n(n2)Cc2cc(Cl)ccc2-3)c1`, for which the melting point fell in the range of 229 to 230 °C.

`NC(=O)c1cn(Cc2ccccc2)c(CO)n1` gave a melting point of 204 to 207 °C. To `O=C(Cc1cccc(O)c1)NNC(=O)c1c(O)cc(O)cc1Cl` belongs 217 °C. For `Cc1cc2c(cc1C)C(=O)C(Br)=C(N)C2=O` the value was 228 °C. To `CCCCCCCCCCCCCCCCC(N)C(O)CO` (stereo unspecified) belongs 92 to 93 °C. `FC(F)c1cc(-c2cccc(C(F)(F)F)c2)nc2ccnn12` had a melting point of 127 °C. For `N#CC1OC(COC(=O)c2ccccc2)C(OC(=O)c2ccccc2)C1OC(=O)c1ccccc1` (stereo unspecified) the value was 77 to 78 °C; for `CCCOC(=O)C(Cc1ccccc1)(Cn1cncn1)c1ccccc1OC` (stereo unspecified), 129 to 130 °C; for `CCC(=O)N[C@@H](C)C(=O)N1CCC[C@H]1C(=O)NC`, 163 to 165 °C. To `O=C(COc1ccc(C(=O)C=CC(=O)N2CCCCC2)c(O)c1)Nc1nc2ccccc2s1` belongs 207 to 210 °C; to `CCOc1ccc(-c2ccc3c(c2)C=C(C(=O)O)CCN3C=O)cc1F`, 220 to 222 °C. For `COCc1nc2cnc3ccccc3c2n1CC(C)(C)O` the value was 145 to 148 °C. With `COc1cc(CC(=O)NCCOCc2ccc(C)c(C)c2)ccc1O`, the melting point is 82 to 83 °C.

Consider `FC(F)(F)c1cccc(Nc2nccc(-c3cccnc3)n2)c1`, for which the melting point was 170 to 171 °C. For `CC(=O)c1ccc2c(c1)ncn2-c1cccc(-c2cncnc2)c1` the value was 253 to 254 °C; for `NC(c1ccccc1)c1ccc(OCCCCOc2ccc(C(N)c3ccccc3)cc2)cc1` (stereo unspecified), 120 to 123 °C; for `Cn1c(=O)c(C(=O)NC2CCCCC2)c(O)c2cc(F)ccc21`, 193 °C. To `COc1cc(OC)c(-c2cc3ccccc3n2C)cc1C=CC(=O)c1ccc(S(N)(=O)=O)cc1` belongs 148 to 150 °C; to `CN1CCc2c(sc3ncn(CCCl)c(=O)c23)C1`, 159 to 161 °C.

Molecule `CCCCc1cc2ccc(C(=O)O)cc2o1` came in with a melting point of 102 to 104 °C. To `NC(=O)c1ccnc(-c2ccccc2)c1N` belongs 163 to 164 °C; to `CCS(=O)c1nc(-c2ccccc2)c(-c2ccccc2)o1` (stereo unspecified), 133 to 134 °C. For `O=[N+]([O-])c1ccc(SC2SCC(O)C(O)C2O)cc1` (stereo unspecified) the value was 168 °C; for `Cn1nc(-c2cnc3[nH]cc(C(=O)NCC4CC4)c3n2)c2ccc(F)cc21`, 319 to 322 °C; for `CN1Cc2c(C#CC3(O)CCCC3)ncn2-c2cccc(Cl)c2C1=O`, 207 to 208 °C.

`O=S(=O)(N[C@H]1CC[C@H](CCN2CCC(c3cccc4c3CCO4)CC2)CC1)c1ccc(F)cc1` displayed a melting point of 134 °C.

Turning to `CCCCCCCCCCCN=C=O`, the melting point is 109 to 110 °C. In the case of `Cc1cc(C)c(C(=O)c2ccc(-c3ccccc3)cc2)c(C)c1`, the melting point is 111 to 112 °C.

Take `CC(C)(C)OC(=O)NCC1CCCc2ccc(C(=O)O)cc21` (stereo unspecified): the melting point was in the range of 172 to 176 °C. To `CCOC(=O)c1ccc(N2CCCC2=O)cc1` belongs 94 to 95 °C; to `Cc1nc(C(Cl)(Cl)Cl)nc(OC(=O)N(C)C)c1Cl`, 87 to 88 °C.

Source of the values: a melting point compilation (Tetko et al.; mined from patent text by program, amines drawn as free bases though some values may be those of a salt).
